In patent US5036059A, “1,4-Dihydropyridine-3-carboxylate derivatives” (Nippon Shinyaku Company, Limited, priority 1984, dated 1991):

Columns and labels:
[1] = tested on: rats (with normal blood pressure); test: Hypotensive action, mean blood pressure of femoral artery in unanesthetized normotensive rats, oral; format: in vivo; conditions: Rattus norvegicus, read-out: % Decreases in Mean Blood Pressure [at peak effect]; for inhibition in vivo at 1 mg/kg: 1 mg/kg oral; for inhibition in vivo at 3 mg/kg: 3 mg/kg oral; for inhibition in vivo at 10 mg/kg: 10 mg/kg oral
Method: Blood pressure of femoral artery of rats (with normal blood pressure) under unanesthetized condition was measured directly using a pressure tranducer.
The present invention compounds were given orally at doses of 1, 3 and 10 mg/kg, and changes in blood pressure were continuously recorded. Percent decreases of mean blood pressure at the peak effect were calculated. The maximum changes in mean blood pressure (%) were shown as "hypotensive action" (Table 2).
Hypotensive action of diltiazem (which is a known hypotensive drug) measured by the same method at the doses of 3, 10 and 30 mg/kg were 0, 11.2 and 33.0%, respectively. Hypotensive action of the compound of Example 4 which is one of the most representative compounds of this invention was tested using spontaneously hypertensive rats and was compared with those of Nifedipine and Diltiazem hydrochloride. The method applied was that the drugs were orally given to the rats of which systolic arterial blood pressure were higher than 180 mmHg when it was measured plethysmographically using tail arteries. (Table 3)

guinea pig heart = test: Coronary vasodilating action, constant pressure perfusion of isolated guinea pig heart (Langendorff); conditions: Cavia porcellus, via coronary artery, read-out: Perfusion Increasing Rate; for activation at 0.001 mg: 10^-6 gram/heart; for activation at 0.0001 mg: 10^-7 gram/heart
Method: Constant pressure perfusion samples of guinea pig heart isolated by a method according to Langendorff were treated with the present invention compounds by administration via coronary artery and the effect was examined (Table 1).
With reference to coronary vasodilating action of diltiazem measured by the same method, the increasing rates in perfusion by administration of 10^-7, 10^-6 and 10^-5 gram/heart were 4, 16 and 55%, respectively.

SMILES | inhibition in vivo at 1 mg/kg [1] [%] | inhibition in vivo at 3 mg/kg [1] [%] | inhibition in vivo at 10 mg/kg [1] [%] | activation at 0.001 mg (guinea pig heart) [%] | activation at 0.0001 mg (guinea pig heart) [%]
CC1=C(C(=O)OCCN(C)Cc2ccccc2)C(c2cccc([N+](=O)[O-])c2)C(P2(=O)OCCCO2)=C(C)N1 (stereo not drawn) [Example 2, 2-(N-benzyl-N-methylamino)ethyl 2,6-dimethyl-4-(3-nitrophenyl)-5-(2-oxo-1,3,2-dioxaphosphorinan-2-yl)-1,4-dihydropyridine-3-carboxylate] | 18.4 | 39.2 | 50.1 | – | –
CCOC(=O)C1=C(C)NC(C)=C(P2(=O)OCCCO2)C1c1ccccc1[N+](=O)[O-] (stereo not drawn) [Example 5, Ethyl 2,6-dimethyl-4-(2-nitrophenyl)-5-(2-oxo-1,3,2-dioxaphosphorinan-2-yl)-1,4-dihydropyridine-3-carboxylate] | 39.7 | 43.3 | 46.2 | – | –
CC1=C(C(=O)OC(C)C)C(c2ccccc2[N+](=O)[O-])C(P2(=O)OCCCO2)=C(C)N1 (stereo not drawn) [Example 6, Isopropyl 2,6-dimethyl-4-(2-nitrophenyl)-5-(2-oxo-1,3,2-dioxaphosphorinan-2-yl)-1,4-dihydropyridine-3-carboxylate] | – | – | – | 52 | 10
COC(=O)C1=C(C)NC(C)=C(P2(=O)OCC(C)(C)CO2)C1c1cccc([N+](=O)[O-])c1 (stereo not drawn) [Example 7, Methyl 2,6-dimethyl-5-(5,5-dimethyl-2-oxo-1,3,2-dioxaphosphorinan-2-yl)-4-(3-nitrophenyl)-1,4-dihydropyridine-3-carboxylate] | 12.7 | 18.4 | 31.4 | – | –
CC1=C(C(=O)OCCN(C)Cc2ccccc2)C(c2cccc([N+](=O)[O-])c2)C(P2(=O)OCC(C)(C)CO2)=C(C)N1 (stereo not drawn) [Example 9, 2-(N-Benzyl-N-methylamino)-ethyl 2,6-dimethyl-5-(5,5-dimethyl-2-oxo-1,3,2-dioxaphosphorinan-2-yl)-4-(3-nitrophenyl)-1,4-dihydropyridine-3-carboxylate] | 12.7 | 12.9 | 40.4 | – | –
CC1=C(C(=O)OCCN(C)C)C(c2cccc([N+](=O)[O-])c2)C(P2(=O)OCC(C)(C)CO2)=C(C)N1 (stereo not drawn) [Example 10, 2-(N,N-Dimethylamino)ethyl 2,6-dimethyl-5-(5,5-dimethyl-2-oxo-1,3,2-dioxaphosphorinan-2-yl)-4-(3-nitrophenyl)-1,4-dihydropyridine-3-carboxylate] | – | – | – | 22 | 12
CCCOCCOC(=O)C1=C(C)NC(C)=C(P2(=O)OCC(C)(C)CO2)C1c1cccc([N+](=O)[O-])c1 (stereo not drawn) [Example 11, 2-n-Propoxyethyl 2,6-dimethyl-5-(5,5-dimethyl-2-oxo-1,3,2-dioxaphosphorinan-2-yl)-4-(3-nitrophenyl)-1,4-dihydropyridine-3-carboxylate] | – | – | – | 53 | 11
CC1=C(C(=O)OCCOCc2ccccc2)C(c2cccc([N+](=O)[O-])c2)C(P2(=O)OCC(C)(C)CO2)=C(C)N1 (stereo not drawn) [Example 12, 2-Benzyloxyethyl 2,6-dimethyl-5-(5,5-dimethyl-2-oxo-1,3,2-dioxaphosphorinan-2-yl)-4-(3-nitrophenyl)-1,4-dihydropyridine-3-carboxylate] | – | – | – | 67 | 14
COC(=O)C1=C(C)NC(C)=C(P2(=O)OC(C)CC(C)O2)C1c1ccccc1[N+](=O)[O-] (stereo not drawn) [Example 18, Methyl 2,6-dimethyl-5-(4,6-dimethyl-2-oxo-1,3,2-dioxaphosphorinan-2-yl)-4-(2-nitrophenyl)-1,4-dihydropyridine-3-carboxylate] | 15.7 | 42.7 | 45.5 | – | –
CC1=C(C(=O)OCCN(C)Cc2ccccc2)C(c2cccc([N+](=O)[O-])c2)C(P2(=O)O[C@H](C)C[C@@H](C)O2)=C(C)N1 (stereo partly drawn) [Example 20, 2-(N-Benzyl-N-methylamino)-ethyl 2,6-dimethyl-5-[4(R),6(R)-dimethyl-2-oxo-1,3,2-dioxaphosphorinan-2-yl]-4-(3-nitrophenyl)-1,4-dihydropyridine-3-carboxylate] | – | – | – | 32 | 10
CCC1(CC)COP(=O)(C2=C(C)NC(C)=C(C(=O)OC)C2c2ccccc2[N+](=O)[O-])OC1 (stereo not drawn) [Example 24, Methyl 5-(5,5-diethyl-2-oxo-1,3,2-dioxaphosphorinan-2-yl)-2,6-dimethyl-4-(2-nitrophenyl)-1,4-dihydropyridine-3-carboxylate] | – | – | – | 41 | 12
COC(=O)C1=C(C)NC(C)=C(P2(=O)OCC(C)CO2)C1c1cccc([N+](=O)[O-])c1 (stereo not drawn) [Example 26] | 28.7 | 37.1 | 43.8 | – | –
CCC1COP(=O)(C2=C(C)NC(C)=C(C(=O)OC)C2c2cccc([N+](=O)[O-])c2)OC1 (stereo not drawn) [Example 28, Methyl 5-(5-ethyl-Z-oxo-1,3,2-dioxaphosphorinan-2-yl)-2,6-dimethyl-4-(3-nitrophenyl)-1,4-dihydropyridine-3-carboxylate] | 16.5 | 26.6 | 33.9 | – | –
CCC1COP(=O)(C2=C(C)NC(C)=C(C(=O)OCCN(C)Cc3ccccc3)C2c2cccc([N+](=O)[O-])c2)OC1 (stereo not drawn) [Example 29, 2-(N-Benzyl-N-methylamino)-ethyl 5-(5-ethyl-2-oxo-1,3,2-dioxaphosphorinan-2-yl)-2,6-dimethyl-4-(3-nitrophenyl)-1,4-dihydropyridine-3-carboxylate] | – | – | – | 59 | 34
CCC1COP(=O)(C2=C(C)NC(C)=C(C(=O)OC)C2c2ccccc2[N+](=O)[O-])OC1 (stereo not drawn) [Example 30, Methyl 5-(5-ethyl-2-oxo-1,3,2-dioxaphosphorinan-2-yl)-2,6-dimethyl-4-(2-nitrophenyl)-1,4-dihydropyridine-3-carboxylate] | – | – | – | 26 | 13
COC(=O)C1=C(C)NC(C)=C(P2(=O)OCC(C(C)C)CO2)C1c1ccccc1[N+](=O)[O-] (stereo not drawn) [Example 34, Methyl 2,6-dimethyl-5-(5-isopropyl-2-oxo-1,3,2-dioxaphosphorinan-2-yl)-4-(2-nitrophenyl)-1,4-dihydropyridine-3-carboxylate] | – | – | – | 38 | 13
CC1=C(C(=O)OCCN(C)Cc2ccccc2)C(c2cccc([N+](=O)[O-])c2)C(P2(=O)OCC3(CCC3)CO2)=C(C)N1 (stereo not drawn) [Example 37, 2-(N-Benzyl-N-methylamino)-ethyl-2,6-dimethyl-4-(3-nitrophenyl)-5-(7-oxo-6,8-dioxa-7-phosphaspiro(3,5)nonan-7-yl)-1,4-dihydropyridine-3-carboxylate] | – | – | – | 26 | 22
CCOC(=O)C1=C(C)NC(C)=C(P2(=O)OCC3(CCC3)CO2)C1c1ccccc1[N+](=O)[O-] (stereo not drawn) [Example 39, Ethyl 2,6-dimethyl-4-(2-nitrophenyl)-5-(7-oxo-6,8-dioxa-7-phosphaspiro(3,5)nonan-7-yl)-1,4-dihydropyridine-3-carboxylate] | – | – | – | 31 | 12
COC(=O)C1=C(C)NC(C)=C(P2(=O)OCC3(CCCCC3)CO2)C1c1cccc([N+](=O)[O-])c1 (stereo not drawn) [Example 40, Methyl 2,6-dimethyl-4-(3-nitrophenyl)-5-(3-oxo-2,4-dioxa-3-phosphoaspiro(5,5)undecan-3-yl)-1,4-dihydropyridine-3-carboxylate] | – | – | – | 82 | 29
CCOC(=O)C1=C(C)NC(C)=C(P2(=O)OCCCO2)C1c1ccccc1C(F)(F)F (stereo not drawn) [Example 51, Ethyl 2,6-dimethyl-5-(2-oxo-1,3,2-dioxaphosphorinan-2-yl)-4-(2-trifluoromethylphenyl)-1,4-dihydropyridine-3-carboxylate] | 21.1 | 43 | 45.4 | – | –
CC1=C(C(=O)OCCN(C)Cc2ccccc2)C(c2ccccc2OC(F)F)C(P2(=O)OCC(C)(C)CO2)=C(C)N1 (stereo not drawn) [Example 64, 2-(N-Benzyl-N-methylamino)-ethyl 4-(2-difluoromethoxyphenyl)-2,6-dimethyl-5-(5,5-dimethyl-2-oxo-1,3,2-dioxaphosphorinan-2-yl)-1,4-dihydropyridine-3-carboxylate] | 6.9 | 16.5 | 41.5 | – | –
CC1=C(C(=O)OCC2CC2)C(c2ccccc2[N+](=O)[O-])C(P2(=O)OCCCO2)=C(C)N1 (stereo not drawn) [Example 68, Cyclopropylmethyl 2,6-dimethyl-4-(2-nitrophenyl)-5-(2-oxo-1,3,2-dioxaphosphorinan-2-yl)-1,4-dihydropyridine-3-carboxylate] | 13 | 41.7 | 45.8 | – | –
CC(=O)COC(=O)C1=C(C)NC(C)=C(P2(=O)OCCCO2)C1c1ccccc1C(F)(F)F (stereo not drawn) [Example 76, 2-Oxopropyl 2,6-dimethyl-5-(2-oxo-1,3,2-dioxaphosphorinan-2-yl)-4-(2-trifluoromethylphenyl)-1,4-dihydropyridine-3-carboxylate] | 10.5 | 35 | 40.2 | – | –
